This data set can be described thus: gradient 5% acetonitrile 3 min, to 50% in 2 min, to 85% in 15 min, held 3 min, 100 µL/min. The note with it: column: Zorbax Extend-C18 2.1 x 50 mm; eluents: water / acetonitrile, 0.1% formic acid. In short, it runs like this: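 Retention times of pure standards were taken from adduct peaks that were selected by computer and manually inspected. Over 3 months, mixtures of ~100 molecules were run by HPLC–quadrupole time-of-flight mass spectrometry in positive and negative ionization mode. The Zorbax Extend-C18 column (2.1 × 50 mm, 1.8 μm) ran at 100 μL/min in water and acetonitrile, each containing 0.1% formic acid, with 40 μL dead volume and 900 μL dwell volume.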
The compound `Cc1ccc2c(c1)C(O)(CC(=O)c1ccc(F)cc1)C(=O)N2` (centres undefined) displayed an RP-LC retention time of 717 s.

For `Cc1nnc(C2CCCN(C(=O)c3nc4ccccc4s3)C2)s1` (centres undefined), the RP-LC retention time amounted to 736 s.

Regarding `COc1ccc(S(=O)(=O)N2CC3CN(C(=O)c4cccc(F)c4)CC(C2)O3)cc1`, the RP-LC retention time came to 794 s.

As to `COc1ccc(-c2noc(Cn3c(=O)n(CC4CCCO4)c(=O)c4ccccc43)n2)cc1OC` (centres undefined), the RP-LC retention time is 828 s.

As for `COC(=O)c1ccc(N2C=C(C#N)S(=O)(=O)c3ccc(C)cc32)cc1`, the RP-LC retention time was found to be 887 s.

Compound `CCOC(=O)c1ccc(N2CCCC2)nn1` returned an RP-LC retention time of 562 s.

Compound `Cc1nc(-c2ccccc2OC2CN(S(=O)(=O)Cc3ccccc3)C2)no1` showed an RP-LC retention time of 916 s.

In the case of `CCC(=O)N1CCc2cc(N3CC(C(=O)Nc4ccccc4F)CC3=O)ccc21` (centres undefined), the RP-LC retention time came out at 741 s.

For the compound `Cc1ccc(CNC(=O)C(C)n2nc(C)c3nn(-c4ccccc4)c(C)c3c2=O)o1` (centres undefined), the RP-LC retention time was found to be 807 s.

`CCS(=O)(=O)Nc1ccc(-c2noc(COc3ccc(F)cc3)n2)cc1` returned an RP-LC retention time of 931 s.

`Cn1cc(-c2cc3n(n2)CCC(=O)N3CC(=O)NC2CCCCCC2)c2ccccc21` returned an RP-LC retention time of 856 s.

The compound `CCc1ccccc1NC(=O)Cn1nc2cc(C)nc(Nc3ccccc3)n2c1=O` gave an RP-LC retention time of 1050 s.

Turning to `CCn1cc(-c2ccc(F)cc2)cc1C(=O)N1CCCCC1`, the RP-LC retention time was 1060 s.

On to `Cc1cccc(NC(=O)Cn2nc(C(=O)N3CCOCC3)c3ccccc32)c1C`, for which the RP-LC retention time was 819 s.

With `Cn1c(=O)oc2cc(-c3noc(-c4ccc(CS(=O)(=O)c5ccccc5)cc4)n3)ccc21`, the RP-LC retention time was found to be 959 s.

In the case of `O=C(N[C@H]1C[C@@H]2C[C@H]1N(C(=O)c1ccccc1Cl)C2)c1ccccc1`, the RP-LC retention time turned out to be 717 s.

In the case of `CCn1nc(N2CCCC(NC(=O)Cn3c(=O)oc4ccccc43)C2)ccc1=O` (centres undefined), the RP-LC retention time came to 707 s.

Compound `CCCN(C)C(=O)c1ccc(-n2cc(CNC(=O)C3CCC3)cn2)cc1` showed an RP-LC retention time of 695 s.

`Cc1cccc(Oc2nccnc2N2CCC(C(=O)NC(C)c3ccc(C)cc3C)CC2)c1` (centres undefined): the RP-LC retention time was determined as 1150 s.

For `COc1ccccc1-c1nc(Cn2nnc(-c3nc(-c4ccc(C)c(C)c4)no3)c2C)c(C)o1`, the RP-LC retention time was determined as 1240 s.

Compound `Cn1cc(CN2CCC(C(=O)NCCC3=CCCCC3)CC2)c2cc(Cl)ccc21` yielded an RP-LC retention time of 778 s.

In turn, `COc1ccc(CCn2c(-c3cccs3)nc3c(c(=O)c4ccccc4n3C)c2=O)cc1` displayed an RP-LC retention time of 880 s.

With `COc1ccc2c(c1)C1(CCN(C(=O)Nc3ccccc3C)C1)C(=O)N2C` (centres undefined), the RP-LC retention time was 750 s.

`O=C1CN(C(=O)Cc2ccc(Cl)cc2)C2(CCCC2)CN1` yielded an RP-LC retention time of 761 s.

`Cc1cc(C)cc(C(=O)NCc2ccc(N3CCOCC3)nc2)c1` returned an RP-LC retention time of 628 s.

In turn, `COc1ccccc1C(CNC(=O)c1cc(=O)c2ccc(C)c(C)c2o1)N(C)C` (centres undefined) returned an RP-LC retention time of 639 s.

Take `O=C(CCn1nnc2cc(-c3noc(-c4ccc(C(F)(F)F)cc4)n3)ccc21)N1CCOCC1`: the RP-LC retention time came out at 974 s.

The compound `Cc1ccc(Nc2c(-c3nc(C)no3)cnc3nc(C)ccc23)c(F)c1` registered an RP-LC retention time of 793 s.

Regarding `CSc1ccc(NC(=O)c2c(C)sc3ncnc(N4CCCC(C)C4)c23)cc1` (centres undefined), the RP-LC retention time was 1250 s.

Compound `Cc1cc(=O)oc2c(C)c(OCC(O)CN3CCC(C(N)=O)CC3)ccc12` (centres undefined) showed an RP-LC retention time of 579 s.

The compound `Cc1cccc(NC(=O)CN2CCc3[nH]c4c(C)cc(F)cc4c(=O)c3C2)c1` had an RP-LC retention time of 626 s.

For `CCC(=O)NCc1nc2c(n1CC)CN(S(=O)(=O)c1ccc(Cl)cc1)CC2`, the RP-LC retention time stood at 538 s.

Regarding `Cc1cc(NC(=O)c2cc(C)n3nccc3n2)ccc1F`, the RP-LC retention time stood at 942 s.

`CSc1ccc(CNC(=O)C2CCCN(C(=O)Cc3cccc4ccccc34)C2)cc1` (centres undefined) yielded an RP-LC retention time of 951 s.

As for `Clc1ccc(Nc2c(-c3ccc(Cl)cc3)nc3ccc(Cl)cn23)cc1`, the RP-LC retention time came out at 1090 s.

As to `O=S(=O)(c1ccccc1-c1nc(-c2ccccc2)no1)N1CCN(C2CCCCC2)CC1`, the RP-LC retention time was 755 s.

`CCC(C)N(CCNC(=O)Cn1c(=O)oc2ccccc21)Cc1ccco1` (centres undefined) yielded an RP-LC retention time of 631 s.

Regarding `CC(C)c1ccc(NC(=O)C2CCN(S(=O)(=O)c3ccc4c(c3)sc(=O)n4C)CC2)cc1`, the RP-LC retention time was 993 s.

`Cc1sc(C)c(S(=O)(=O)NCc2ccco2)c1-c1cc(C(F)(F)F)on1` yielded an RP-LC retention time of 1060 s.

`CCN1C(=O)c2ccccc2Oc2ccc(C(=O)NCCc3ccc(Cl)cc3)cc21` yielded an RP-LC retention time of 998 s.

For `COc1ccc2c(c1)C1(CCN(C(=O)Nc3cccc(F)c3)C1)C(=O)N2` (centres undefined), the RP-LC retention time came out at 683 s.

On to `CCc1cccc(NC(=O)C2CCCN2S(=O)(=O)c2cc3c(cc2Cl)NC(=O)CO3)c1` (centres undefined), for which the RP-LC retention time is 836 s.

With `O=C(NC1CCCCCC1)C1CCCN(c2nn3c(=O)c4c(nc3s2)CCCC4)C1` (centres undefined), the RP-LC retention time amounted to 838 s.

Regarding `Cc1cccc(CNC(=O)c2nc3cccnc3n(CC(C)C)c2=O)c1`, the RP-LC retention time amounted to 580 s.

For `CCn1c(-c2ccccc2)cc(C(=O)NC)c1C`, the RP-LC retention time came to 807 s.

With `O=C(Cc1ccc(F)cc1)N1CCCCC1c1nncn1CC1CC1` (centres undefined), the RP-LC retention time came to 735 s.

The compound `CC(C)c1ccc(N2C(=O)CN(S(C)(=O)=O)CC2(C)C(=O)NCc2ccccc2)cc1` (centres undefined) gave an RP-LC retention time of 860 s.

Regarding `CCN1CCN(C(=O)C2Cc3cc(S(=O)(=O)N4CCCCC4)ccc3N2C(C)=O)CC1` (centres undefined), the RP-LC retention time worked out at 601 s.

With `COC(=O)c1ccc(NC(=O)C(=O)NCc2ccccn2)cc1`, the RP-LC retention time turned out to be 592 s.

In turn, `CC(C)N1Cc2cc(C(=O)N3CCC(Cc4ccccc4)CC3)sc2C1` registered an RP-LC retention time of 949 s.

Turning to `Cc1ccc2nc(-c3ccc(N(C)C)cc3)c(Nc3ccccc3C)n2c1`, the RP-LC retention time came out at 812 s.

For the compound `Cc1oc(-c2[nH]ncc2C(=O)N2CCCC2)cc1S(=O)(=O)NCCCc1ccccc1`, the RP-LC retention time came to 799 s.

In the case of `COc1ccc(C2=NC3(CCCCC3)N(CC(=O)Nc3cc(OC)cc(OC)c3)C2=O)cc1`, the RP-LC retention time amounted to 660 s.

Compound `CC(=O)c1cccc(NC(=O)Cn2nc3c4cc(-c5ccc(Cl)cc5)nn4ccn3c2=O)c1` had an RP-LC retention time of 902 s.

With `COC1CCC12CCN(C(=O)c1cnn(C)c1)CC2` (centres undefined), the RP-LC retention time was found to be 642 s.

`Cc1cc(C)c(CNC(=O)C2CC(=O)N(c3cccc(NC(=O)C4CCC4)c3)C2)c(C)c1` (centres undefined) gave an RP-LC retention time of 892 s.

For the compound `CN(C)C(=O)C1c2ccccc2CC(=O)N1Cc1ccccc1` (centres undefined), the RP-LC retention time worked out at 728 s.

Consider `Cc1nc(SCC(=O)O)n[nH]1`, for which the RP-LC retention time is 765 s.

Compound `COc1ccc(-c2nc(N3CCN(c4ccccn4)CC3)c3ccccc3n2)cc1` had an RP-LC retention time of 580 s.

The values above are taken from the METLIN SMRT retention time set (Domingo-Almenara et al. 2019).
